# According to patent publication US20220193185A1, “COMBINATION OF SYNTHETIC PEPTIDES WITH AFFINITY TO THE TGF-ß RECEPTOR AND WITH AFFINITY TO THE IL-10 RECEPTOR, PHARMACEUTICAL COMPOSITION AND THEIR USE AS IMMUNOMODULATORS IN THE TREATMENT OF AUTOIMMUNE, INFLAMMATORY OR ALLERGIC DISEASES” (Universidade Federal de Uberlândia, priority 2019, published 2022):
# Bridges are numbered along the chain shown (N, C = ends). Where no end group is shown, it is not given here.
# How the values were obtained:
# [1] = aggregation behavior in solution by Dynamic Light Scattering (DLS); assay type: physicochemical; settings: for measured hydrodynamic radius: IL-10 mimetic peptides in solution
# NFkB pathway [2] = experiment: NFkB expression in Jurkat-Dual reporter cells, luciferase (IL-10 mimetic peptides); assay type: cell-based; settings: without activating molecules; 12, 24 and 48 hours; different concentrations
# Method: (§1) In order to investigate the ability of synthetic peptides with affinity to the Interleukin-10 receptor to interfere in the NFkB, IFN and TLR4 pathways, reporter cell lines were used. To analyze whether the isolated peptides (without activation molecules) could induce any type of activation, the isolated peptides were tested in cell lines during 12, 24 and 48 hours of treatment. […] As an example, FIG. 13A, FIG. 13B, and FIG. 13C show an analysis of NFkB expression after stimulation with the synthesized IL-10 receptor affinity synthetic peptides described herein. Cells were treated for 12, 24 and 48 hours with the synthesized peptides Pep 1-IL10, Pep 2-IL10, Pep 3-IL10 and Pep 4-IL10, at different concentrations, without activating molecules. Luciferase was then measured after 12 hours of treatment (FIG. 13A), 24 hours of treatment (FIG. 13B) and 48 hours of treatment (FIG. 13C). […] TNF-α (200 ng/mL) was used as a positive control.
# The assay was then carried out using TNF-α as activation molecule not only in the control, but after a pretreatment with the synthesized peptides Pep 1-IL10, Pep 2-IL10, Pep 3-IL10 and Pep 4-IL10, at different concentrations. All peptides were able to modulate NFKB activation after 12, 24 and 48 hours, with different results depending on the concentrations used. […] In the assays shown by FIGS. 14 A, B and C, analysis of NFkB expression was performed in Jurkat-Dual reporter cells. Cells were treated for 1 hour with peptides and TNF-α (200 ng/ml) added. Luciferase was measured after 12 hours of treatment (FIG. 14A), 24 hours of treatment (FIG. 14B) and 48 hours of treatment (FIG. 14C).
# Another assay was then performed in which cells were pretreated with TNF-α and the synthesized peptides Pep 1-IL10, Pep 2-IL10, Pep 3-IL10 and Pep 4-IL10, at different concentrations, were added later. All peptides were able to modulate NFKB activation after 12, 24 and 48 hours, with different results depending on the concentrations used. The most significant results will be described below. […] After 48 hours of treatment, Pep 1-IL-10 at a concentration of 0.001 μM (P<0.05) was the one that obtained a result with the highest statistical significance in the decrease of NFKB signaling (FIG. 15C). In the assays shown by FIGS. 15 A, B and C, analysis of NFkB expression was performed in Jurkat-Dual reporter cells. Cells were treated for 1 hour with TNF-α (200 ng/ml) and peptides were added. Luciferase was measured after 12 hours of treatment (FIG. 15A), 24 hours of treatment (FIG. 15B) and 48 hours of treatment (FIG. 15C). TNF-α (200 ng/mL) was used as a positive control and rlL-10 (recombinant Interleukin-10) (0.4 ng/mL) as a negative control. *P<0.05; **P<0.005; ***P<0.0005.
# IFN signaling pathway = IFN signaling pathway in Jurkat-Dual reporter cells, SEAP production; assay type: cell-based; settings: after 12, 24 and 48 hours; results depend on concentration
# Method: as §1
# The most significant results will be described below. […] When cells were pretreated with IFN, although peptides at some concentrations indicated results, they were not statistically sufficient. Therefore, we cannot confirm whether they were able to interfere with pathway activation (FIGS. 17 A, B and C) in an equal or better way than the negative control (rIL-10). In the assays shown by FIGS. 16 (A, B and C) and FIGS. 17 (A, B and C), analysis of IFN expression was performed in Jurkat-Dual reporter cells. In the assays shown by FIGS. 16 A, B and C, cells were treated for 1 hour with peptides with further addition of IFN-α (104 EU/ml). Secreted Embryonic Alkaline Phosphatase (SEAP) production was measured after 12 hours of treatment (FIG. 16A), 24 hours of treatment (FIG. 16 B) and 48 hours of treatment (FIG. 16 C). In the assays shown by FIGS. 17A, B and C, cells were treated for 1 hour with IFN-α (104 EU/ml) with further addition of the peptides. SEAP production was measured after (A) 12 hours of treatment (B), 24 hours of treatment and (C) 48 hours of treatment. IFN-α (104 EU/ml) was used as a positive control and rlL-10 (0.4 ng/ml) as a negative control. *P<0.05.
# [3] = test system: TGF-β1 receptor on A549 cells; experiment: ELISA on cells of the A549 line using anti-TGF-β1 antibody; assay type: binding, human
# Method: The peptides described in this patent application were selected using the Phage Display (PD) methodology. The selection was performed by evaluating the ability of said peptides to recognize the TGF-β1 receptor on A549 cells, using an ELISA assay. MaxiSorp 96-well microtiter plates were coated with 1×10^6 cells diluted in PBS and incubated overnight at 4° C. Cells were blocked with 3% PBS-BSA for 1 h at 37° C., washed once with PBS and incubated with […] of each TGF-β1 mimetic peptide or 5 ng/ml of recombinant TGF-β1 for 1 h at 37° C. After washing, the plate was incubated for 1 h at 37° C. with anti-TGF-β1 antibody. The plate was washed and incubated with HRP-labeled anti-human IgG antibody for 1 h at 37° C. After washing, TMB substrate solution was added to the plate; the reaction was stopped by adding the 2N H2SO4 solution and read at 492 nm in a microplate reader.
# To investigate whether the synthesized peptides could bind to cell receptors, an ELISA assay was performed on cells of the A549 line using commercial anti-TGF-β1 antibody.
# [4] = test system: TFGβRII/SMAD-dependent pathway; experiment: HEK-blue-TGFβ reporter cells, SEAP production; assay type: cell-based; settings: tested at 0.1, 1, 10 and 100 μM; for concentrations with statistically significant activation of the SMAD-dependent pathway (SEAP): 12 hours
# Method: After 12 hours of stimulation (FIG. 4A), all peptides were able to bind to the receptor.
# The assay was performed in such a way that approximately 2.5×10^4 cells/well (100 μL) were treated with 100 μL of all synthetic peptides at different concentrations (100 μM, 10 μM, 1 μM and 0.1 μM) while rTGF-β1 ([…]) at 100 ng/ml was used as a positive control. After incubating the cells for 12, 24 and 48 hours at 37° C. in 5% CO2, […] of supernatant was transferred to a Greiner plate to which […] of Quanti-blue solution was added. The plate was incubated for 1 hour at 37° C. in 5% CO2 and the production of SEAP (secreted alkaline phosphatase) was detected at 655 nm. All tests were performed in triplicate.
# NFkB pathway [5] = experiment: NFkB expression in Jurkat cells, luciferase (TGF-β1 mimetic peptides); assay type: cell-based, human; settings: for concentrations with statistically significant decrease of NFKB pathway activation vs TNF-α control: peptide pretreatment 1 hour, then TNF-α, tested at 0.1-100 μM
# Method: Two different cell treatments were performed using Jurkat cells to analyze NFkB expression after 12, 24 and 48 hours. In the first test, Jurkat cells were treated only with peptides (no pathway activating molecule) at different concentrations to analyze the ability of each peptide to induce NFkB expression (Figure not shown). None of the tested concentrations induced any type of pathway activation.
# The assay was carried out in such a way that a total of 3×10^5 cells/well ([…]) was pretreated with […] of a composition comprising one of the synthetic peptides in concentrations of 100 μM, 10 μM, 1 μM, and 0.1 μM for 1 hour at 37° C. in 5% CO2, followed by stimulation with TNF-α (200 ng/ml) for 12, 24 and 48 hours. The same stimuli were applied to cells pretreated with TNF-α (200 ng/ml) for 1 hour at 37° C. in 5% CO2 followed by stimulation with peptides at 100 μM, 10 μM, 1 μM and 0.1 μM for 12, 24 and 48 hours. Then, […] of supernatant was transferred to a white plate and Quanti-Luc reagent was used to measure the luciferase product. As a control, the peptides were tested at the same concentrations, without any pathway activating molecule, to investigate whether they could activate the NFkB pathway. TNF-α (200 ng/mL) was used as a positive control and rIL-10 (0.4 ng/mL) as a negative control. […].
# TLR4 pathway = experiment: HEK-Blue hTLR4 reporter cells, SEAP production (TGF-β1 mimetic peptides); assay type: cell-based; settings: peptide pretreatment 1 hour, then LPS 100 ng/mL; 12 hours
# Method: Similar to the treatment using Jurkat cells, peptides in compositions with different concentrations were also tested in HEK cells to investigate their ability to interfere with the TLR4 pathway.
# To ensure that the peptides could not induce any activation when tested alone (no pathway activation molecule) only the peptides were added into the cell line and SEAP production was measured after 12 hours of treatment (Figure not shown).
# The assay was performed using HEK-Blue hTLR4 reporter cells (InvivoGen) to investigate the action of peptides in the TLR4 pathway. A total of 2.3×10^4 cells/well ([…]) was pretreated with […] of composition comprising at least one of the synthetic peptides at concentrations of 100 μM, 10 μM, 1 μM, and 0.1 μM for 1 hour at 37° C. ° C. in 5% CO2 followed by LPS stimulation at 100 ng/mL for 12 hours. The same stimuli were applied to cells pretreated with LPS at 100 ng/ml for 1 hour at 37° C. in 5% CO2, followed by stimuli with peptides at 100 μM, 10 μM, 1 μM and 0.1 μM for 12 hours. Stimuli were added in Quanti-blue medium and SEAP production was measured at 655 nm. As a control, peptides at the same concentrations were tested alone to investigate whether they could activate the TLR4 pathway and LPS was used as a positive control.
substance,measurement,setting,value
"Pep 3-IL-10: synthetic peptide with affinity to the Interleukin-10 receptor, SEQ ID NO: 11 (HCFDTQRMEFRMPPGG)",measured hydrodynamic radius,[1],0.79 nm
same,induction of NFkB expression by peptides alone,NFkB pathway [2],not able to induce any response
same,modulation of the activation of the IFN signaling pathway,IFN signaling pathway,able to modulate the activation of the IFN signaling pathway
"Pep 1-TGF-β1: synthetic peptide with affinity to the TGF-β receptor, SEQ ID N 01, with disulfide bridges (HACFLPASGLCGGGS; disulfide 3-11)",hydrodynamic radius,[1]; TGF-β1 mimetic peptides in solution,0.58 nm
same,recognition of receptor-bound peptide by anti-TGF-β1 antibody compared to recombinant TGF-β1,[3],in the same way that the antibody recognized the TGF-β1 recombinant molecule
"Pep 3-TGF-β1: synthetic peptide with affinity to the TGF-β receptor, SEQ ID N 03, free of disulfide bridges (HASESPLKRQSGGGS)",recognition of receptor-bound peptide by anti-TGF-β1 antibody compared to recombinant TGF-β1,[3],in the same way that the antibody recognized the TGF-β1 recombinant molecule
"Pep 4-TGF-β1: synthetic peptide with affinity to the TGF-β receptor, SEQ ID N 04, with disulfide bridges (HACKLQRSEPCGGGS; disulfide 3-11 (inferred))",recognition of receptor-bound peptide by anti-TGF-β1 antibody compared to recombinant TGF-β1,[3],recognized as statistically different
"Pep 4-IL-10: synthetic peptide with affinity to the Interleukin-10 receptor, SEQ ID NO: 12 (HCMTGSRATFPSAPGG)",measured hydrodynamic radius,[1],0.86 nm
same,induction of NFkB expression by peptides alone,NFkB pathway [2],not able to induce any response
same,modulation of the activation of the IFN signaling pathway,IFN signaling pathway,able to modulate the activation of the IFN signaling pathway
"Pep 6-TGF-β1: synthetic peptide with affinity to the TGF-β receptor, SEQ ID N 06, free of disulfide bridges (HASKLQRSEPSGGGS)",recognition of receptor-bound peptide by anti-TGF-β1 antibody compared to recombinant TGF-β1,[3],recognized as statistically different
same,concentrations with statistically significant activation of the SMAD-dependent pathway (SEAP),[4],"0.1 μM, 10 μM and 100 μM"
same,concentrations with significant maintained activation of the SMAD-dependent pathway (SEAP),[4]; 24 hours,100 µM
same,concentrations with significant maintained activation of the SMAD-dependent pathway (SEAP),[4]; 48 hours,0.1 µM and 1 µM
same,concentrations with statistically significant decrease of NFKB pathway activation vs TNF-α control,NFkB pathway [5]; 24 hours,0.1 µM
same,concentrations with statistically significant reduction of TLR4 pathway activation,TLR4 pathway,1 µM
"Pep 5-TGF-β1: synthetic peptide with affinity to the TGF-β receptor, SEQ ID N 05, free of disulfide bridges (HASFLPASGLSGGGS)",recognition of receptor-bound peptide by anti-TGF-β1 antibody compared to recombinant TGF-β1,[3],recognized as statistically different
same,concentrations with statistically significant activation of the SMAD-dependent pathway (SEAP),[4],"0.1 μM, 1 μM, 10 μM and 100 μM"
same,concentrations with statistically significant decrease of NFKB pathway activation vs TNF-α control,NFkB pathway [5]; 24 hours,0.1 μM; 1 μM and 100 μM
same,concentrations with statistically significant decrease of NFKB pathway activation vs TNF-α control,NFkB pathway [5]; 48 hours,0.1 μM; 1 μM and 10 μM
same,concentrations with statistically significant reduction of TLR4 pathway activation,TLR4 pathway,1 µM and 10 µM
"Pep 8-TGF-β1: synthetic peptide with affinity to the TGF-β receptor, SEQ ID N 08, free of disulfide bridges (HASTLPSNTHSGGGS)",recognition of receptor-bound peptide by anti-TGF-β1 antibody compared to recombinant TGF-β1,[3],recognized as statistically different
same,concentrations with statistically significant activation of the SMAD-dependent pathway (SEAP),[4],1 µM
same,concentrations with significant maintained activation of the SMAD-dependent pathway (SEAP),[4]; 24 hours,1 µM
same,concentrations with significant maintained activation of the SMAD-dependent pathway (SEAP),[4]; 48 hours,"0.1 μM, 1 μM and 10 μM"
same,concentration with statistically significant reduction of the NFKB pathway,"NFkB pathway [5]; cells pretreated with TNF-α, then peptide, 24 hours",0.1 µM
